Experimental data taken from US7473790B2 (Pfizer Inc., priority 2003, dated 2009).

The compounds below were run against T1, HCV polymerase (Hepatitis C virus genotype 1b, UniProt P26663) (assay: HCV polymerase primer/template-directed transcription assay (32P-GTP incorporation, filter binding)). Details: recombinant HCV polymerase; 30 minutes at 30° C.; concentration giving 50% inhibition of polymerase-directed transcription; read-out: IC50.
T1 construct: 2.5 pmoles (0.15 μg) HCV polymerase protein in a final volume of 75 μL
T1 sequence (P26663 2420-3010): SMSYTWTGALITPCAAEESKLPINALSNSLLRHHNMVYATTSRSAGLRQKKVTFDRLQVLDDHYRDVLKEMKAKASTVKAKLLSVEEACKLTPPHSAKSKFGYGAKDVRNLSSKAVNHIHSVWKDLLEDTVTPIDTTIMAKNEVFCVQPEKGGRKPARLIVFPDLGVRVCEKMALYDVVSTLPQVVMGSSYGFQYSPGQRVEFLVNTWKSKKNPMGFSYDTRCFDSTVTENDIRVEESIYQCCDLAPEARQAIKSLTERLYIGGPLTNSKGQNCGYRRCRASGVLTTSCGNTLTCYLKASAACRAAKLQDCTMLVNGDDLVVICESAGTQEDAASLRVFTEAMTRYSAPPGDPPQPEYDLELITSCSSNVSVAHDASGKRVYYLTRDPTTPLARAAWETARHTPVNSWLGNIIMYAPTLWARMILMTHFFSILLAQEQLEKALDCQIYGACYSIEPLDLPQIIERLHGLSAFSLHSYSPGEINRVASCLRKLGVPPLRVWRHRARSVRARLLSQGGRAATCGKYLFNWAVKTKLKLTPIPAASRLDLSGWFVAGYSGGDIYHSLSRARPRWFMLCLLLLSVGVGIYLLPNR
Type: biochemical
How it was run: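 IC50s come from triplicate cpm, refit with an enzyme-concentration (30 nM) correction when under 200 nM. Reactions ran 30 min at 30° C in Tris pH 7.2 with MgCl2, 1 μM GTP spiked with α-32P-GTP, biotin-dG12 primer and poly(rC)300 template, with 1% DMSO. Incorporated label was collected on DE filtermats and counted.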
`COc1cc(OC)c(CCC2(C3CCCC3)CC(O)=C(Sc3nnc(-c4ccc(O)cc4)[nH]3)C(=O)O2)cc1Cl` (stereo not shown) [C(81), 6-[2-(5-chlor-2,4-dimethoxyphenyl)ethyl]-6-cyclopentyl-4-hydroxy-3-{[5-(4-hydroxyphenyl)-4H-1,2,4-triazol-3-yl]thio}-5,6-dihydro-2H-pyran-2-one] gave an IC50 of 0.014 µM.
Work on `COc1cc(OC)c(CCC2(C3CCCC3)CC(O)=C(Sc3nc4nc(C)ccn4n3)C(=O)O2)cc1Cl` (stereo not shown) [C(82), 6-[2-(5-chloro-2,4-dimethoxyphenyl)ethyl]-6-cyclopentyl-4-hydroxy-3-[(5-methyl[1,2,4]triazolo[1,5-a]pyrimidin-2-yl)thio]-5,6-dihydro-2H-pyran-2-one] yielded an IC50 of 0.027 µM.
For `COc1cc(OC)c(CCC2(C3CCCC3)CC(O)=C(Sc3nnc(CN(C)C)n3C)C(=O)O2)cc1Cl` (stereo not shown) [C(83)], the IC50 was 0.04 µM.
In the case of `COc1cc(OC)c(CCC2(C3CCCC3)CC(O)=C(Sc3nc4ncccn4n3)C(=O)O2)cc1Cl` (stereo not shown) [C(84)], the IC50 is reported as 0.033 µM.
`COc1cc(OC)c(CCC2(C3CCCC3)CC(O)=C(Sc3nnc(-c4cccnc4)n3C)C(=O)O2)cc1Cl` (stereo not shown) [C(85), 6-[-(5-chloro-2,4-dimethoxyphenyl)ethyl]-6-cyclopentyl-4-hydroxy-3-[(4-methyl-5-pyridin-3-yl-4H-1,2,4-triazol-3-yl)thio]-5,6-dihydro-2H-pyran-2-one] gave an IC50 of 0.035 µM.
`COc1cc(OC)c(CCC2(C3CCCC3)CC(O)=C(Sc3nnc(C)n3CCN3CCOCC3)C(=O)O2)cc1Cl` (stereo not shown) [C(86), 6-[2-(5-chloro-2,4-dimethoxyphenyl)ethyl]-6-cyclopentyl-4-hydroxy-3-{[5-methyl-4-(2-morpholin-4-ylethyl)-4H-1,2,4-triazol-3-yl]thio}-5,6-dihydro-2H-pyran-2-one] showed an IC50 of 0.048 µM.
In the case of `COc1cc(OC)c(CCC2(C3CCCC3)CC(O)=C(Sc3nc4ncc(C)cn4n3)C(=O)O2)cc1Cl` (stereo not shown) [C(87), 6-[2-(5-chloro-2,4-dimethoxyphenyl)ethyl]-6-cyclopentyl-4-hydroxy-3-[(6-methyl[1,2,4]triazolo[1,5-a]pyrimidin-2-yl)thio]-5,6-dihydro-2H-pyran-2-one], the IC50 is reported as 0.028 µM.
For `COc1cc(OC)c(CCC2(C3CCCC3)CC(O)=C(Sc3nnc(C)n3C)C(=O)O2)cc1Cl` (stereo not shown) [C(88), 6-[2-(5-chloro-2,4-dimethoxyphenyl)ethyl]-6-cyclopentyl-3-[(4,5-dimethyl-4H-1,2,4-triazol-3-yl)thio]-4-hydroxy-5,6-dihydro-2H-pyran-2-one], the IC50 was 0.022 µM.
For `COC(=O)c1nnc(SC2=C(O)CC(CCc3cc(Cl)c(OC)cc3OC)(C3CCCC3)OC2=O)n1C` (stereo not shown) [C(89), methyl 5-({6-[2-(5-chloro-2,4-dimethoxyphenyl)ethyl]-6-cyclopentyl-4-hydroxy-2-oxo-5,6-dihydro-2H-pyran-3-yl}thio)-4-methyl-4H-1,2,4-triazole-3-carboxylate], the IC50 was 0.02 µM.
With `COc1cc(OC)c(CCC2(C3CCCC3)CC(O)=C(Sc3nnc(CCN4CCOCC4)n3C)C(=O)O2)cc1Cl` (stereo not shown) [C(90), 6-[2-(5-chloro-2,4-dimethoxyphenyl)ethyl]-6-cyclopentyl-4-hydroxy-3-{[4-methyl-5-(2-morpholin-4-ylethyl)-4H-1,2,4-triazol-3-yl]thio}-5,6-dihydro-2H-pyran-2-one] the IC50 was 0.04 µM.
Work on `COc1ccc(CCC2(C3CCCC3)CC(O)=C(Sc3nc4ncnc(O)c4[nH]3)C(=O)O2)cc1Cl` (stereo not shown) [C(91), 3 6-[2-(3-chlor-4-methoxyphenyl)ethyl]-6-cyclopentyl-4-hydroxy-3-[(6-hydroxy-7H-purin-8-yl)thio]-5,6-dihydro-2H-pyran-2-one] yielded an IC50 of 0.04 µM.
`COc1ccc(CCC2(C3CCCC3)CC(O)=C(Sc3nnc(-c4cccnc4)[nH]3)C(=O)O2)cc1Cl` (stereo not shown) [C(92), 6-[2-(3-chloro-4-methoxyphenyl)ethyl]-6-cyclopentyl-4-hydroxy-3-[(5-pyridin-3-yl-4H-1,2,4-triazol-3-yl)thio]-5,6-dihydro-2H-pyran-2-one] gave an IC50 of 0.082 µM.
`CCOC(=O)c1cnc2nc(SC3=C(O)CC(CCc4cc(Cl)c(OC)cc4OC)(C4CCCC4)OC3=O)nn2c1` (stereo not shown) [C(93), ethyl 2-({6-[2-(5-chloro-2,4-dimethoxyphenyl)ethyl]-6-cyclopentyl-4-hydroxy-2-oxo-5,6-dihydro-2H-pyran-3-yl}thio)[1,2,4]triazolo[1,5-a]pyrimidine-6-carboxylate] was tested, and the IC50 was 0.014 µM.
Compound `CCOC(=O)c1cnc2nc(SC3=C(O)CC(CCc4ccc(OC)c(Cl)c4)(C4CCCC4)OC3=O)nn2c1` (stereo not shown) [C(94), ethyl 2-({6-[2-(3-chloro-4-methoxyphenyl)ethyl]-6-cyclopentyl-4-hydroxy-2-oxo-5,6-dihydro-2H-pyran-3-yl}thio)[1,2,4]triazolo[1,5-a]pyrimidine-6-carboxylate] has an IC50 of 0.087 µM.
Compound `COc1ccc(CCC2(C3CCCC3)CC(O)=C(Sc3nc4nccc(C)n4n3)C(=O)O2)cc1Cl` (stereo not shown) [C(95), 6-[2-(3-chloro-4-methoxyphenyl)ethyl]-6-cyclopentyl-4-hydroxy-3-[(7-methyl[1,2,4]triazolo[1,5-a]pyrimidin-2-yl)thio]-5,6-dihydro-2H-pyran-2-one] has an IC50 of 0.074 µM.
`COc1ccc(CCC2(C3CCCC3)CC(O)=C(Sc3nnc(-c4cccnc4)n3C)C(=O)O2)cc1Cl` (stereo not shown) [C(96)] was tested, and the IC50 was 0.075 µM.
`COc1ccc(CCC2(C3CCCC3)CC(O)=C(Sc3nnc(CN(C)C)n3C)C(=O)O2)cc1Cl` (stereo not shown) [C(97), 6-[2-(3-chloro-4-methoxyphenyl)ethyl]-6-cyclopentyl-3-({5-[(dimethylamino)methyl]-4-methyl-4H-1,2,4-triazol-3-yl}thio)-4-hydroxy-5,6-dihydro-2H-pyran-2-one] was tested, and the IC50 was 0.12 µM.
With `COc1ccc(CCC2(C3CCCC3)CC(O)=C(Sc3nc4ncc(C)cn4n3)C(=O)O2)cc1Cl` (stereo not shown) [C(98), 6-[2-(3-chloro-4-methoxyphenyl)ethyl]-6-cyclopentyl-4-hydroxy-3-[(6-methyl[1,2,4]triazolo[1,5-a]pyrimidin-2-yl)thio]-5,6-dihydro-2H-pyran-2-one] the IC50 was 0.068 µM.
With `COc1ccc(CCC2(C3CCCC3)CC(O)=C(Sc3nnc(C)n3C)C(=O)O2)cc1Cl` (stereo not shown) [C(99), 6-[2-(3-chloro-4-methoxyphenyl)ethyl]-6-cyclopentyl-3-[(4,5-dimethyl-4H-1,2,4-triazol-3-yl)thio]-4-hydroxy-5,6-dihydro-2H-pyran-2-one] the IC50 was 0.079 µM.
`COC(=O)c1nnc(SC2=C(O)CC(CCc3ccc(OC)c(Cl)c3)(C3CCCC3)OC2=O)n1C` (stereo not shown) [C(100), methyl 5-({6-[2-(3-chloro-4-methoxyphenyl)ethyl]-6-cyclopentyl-4-hydroxy-2-oxo-5,6-dihydro-2H-pyran-3-yl}thio)-4-methyl-4H-1,2,4-triazole-3-carboxylate] gave an IC50 of 0.032 µM.
In the case of `COc1ccc(CCC2(C3CCCC3)CC(O)=C(Sc3nccn3C)C(=O)O2)cc1Cl` (stereo not shown) [C(101), 6-[2-(3-chloro-4-methoxyphenyl)ethyl]-6-cyclopentyl-4-hydroxy-3-[(1-methyl-1H-imidazol-2-yl)thio]-5,6-dihydro-2H-pyran-2-one], the IC50 is reported as 0.14 µM.
`COc1ccc(CCC2(C3CCCC3)CC(O)=C(Sc3nncn3C)C(=O)O2)cc1Cl` (stereo not shown) [C(102), 6-[2-(3-chloro-4-methoxyphenyl)ethyl]-6-cyclopentyl-4-hydroxy-3-[(4-methyl-4H-1,2,4-triazol-3-yl)thio]-5,6-dihydro-2H-pyran-2-one] gave an IC50 of 0.038 µM.
Work on `COc1ccc(CCC2(C3CCCC3)CC(O)=C(Sc3ncc[nH]3)C(=O)O2)cc1Cl` (stereo not shown) [C(103), 6-[2-(3-chloro-4-methoxyphenyl)ethyl]-6-cyclopentyl-4-hydroxy-3-(1H-imidazol-2-ylthio)-5,6-dihydro-2H-pyran-2-one] yielded an IC50 of 0.24 µM.
Work on `COc1ccc(CCC2(C3CCCC3)CC(O)=C(Sc3nnc(-c4ccncc4)o3)C(=O)O2)cc1Cl` (stereo not shown) [C(104), 6-[2-(3-chloro-4-methoxyphenyl)ethyl]-6-cyclopentyl-4-hydroxy-3-[(5-pyridin-4-yl-1,3,4-oxadiazol-2-yl)thio]-5,6-dihydro-2H-pyran-2-one] yielded an IC50 of 0.31 µM.
In the case of `COc1ccc(CCC2(C3CCCC3)CC(O)=C(Sc3nc(C)cc(C)c3C#N)C(=O)O2)cc1Cl` (stereo not shown) [C(105), 2-({6-[2-(3-chloro-4-methoxyphenyl)ethyl]-6-cyclopentyl-4-hydroxy-2-oxo-5,6-dihydro-2H-pyran-3-yl}thio)-4,6-dimethylnicotinonitrile], the IC50 is reported as 0.2 µM.
`COc1ccc(CCC2(C3CCCC3)CC(O)=C(Sc3nc(-c4ccccc4)cs3)C(=O)O2)cc1Cl` (stereo not shown) [C(106), 6-[2-(3-chloro-4-methoxyphenyl)ethyl]-6-cyclopentyl-4-hydroxy-3-[(4-phenyl-1,3-thiazol-2-yl)thio]-5,6-dihydro-2H-pyran-2-one] gave an IC50 of 0.24 µM.
Work on `COc1ccc(CCC2(C3CCCC3)CC(O)=C(SCc3ccccn3)C(=O)O2)cc1Cl` (stereo not shown) [C(107), 6-[2-(3-chloro-4-methoxyphenyl)ethyl]-6-cyclorpentyl-4-hydroxy-3-[(pyridin-2-ylmethyl)thio]-5,6-dihydro-2H-pyran-2-one] yielded an IC50 of 0.16 µM.
Compound `COc1ccc(CCC2(C3CCCC3)CC(O)=C(Sc3cccc(Cl)c3Cl)C(=O)O2)cc1Cl` (stereo not shown) [C(108), 6-[2-(3-chloro-4-methoxyphenyl)ethyl]-6-cyclopentyl-3-[(2,3-dichlorophenyl)thio]-4-hydroxy-5,6-dihydro-2H-pyran-2-one] has an IC50 of 0.21 µM.
Work on `COc1ccc(CCC2(C3CCCC3)CC(O)=C(SCCc3ccccn3)C(=O)O2)cc1Cl` (stereo not shown) [C(109), 6-[2-(3-Chloro-4-methoxy-phenyl)-ethyl]-6-cyclopentyl-4-hydroxy-3-(2-pyridin-2-yl-ethylsulfanyl)-5,6-dihydro-pyran-2-one] yielded an IC50 of 0.9 µM.
`CC(C)(C#N)c1ccc(OCC2(C3CCCC3)CC(=O)CC(=O)O2)cc1F` (stereo not shown) [C(110), 2-[4-(2-Cyclopentyl-4,6-dioxo-tetrahydro-pyran-2-ylmethoxy)-2-fluoro-phenyl]-2-methyl-propionitrile] gave an IC50 of 7.6 µM.
With `Cc1cnc2nc(CC3=C(O)CC(COc4ccc(C(C)(C)C#N)c(F)c4)(C4CCCC4)OC3=O)nn2c1` (stereo not shown) [C(111), 2-{4-[2-Cyclopentyl-4-hydroxy-5-(6-methyl-[1,2,4]triazolo[1,5-a]pyrimidin-2-ylmethyl)-6-oxo-3,6-dihydro-2H-pyran-2-ylmethoxy]-2-fluoro-phenyl}-2-methyl-propionitrile] the IC50 was 0.395 µM.
